Data taken from US5114941A, “Pyrimidinedione derivative compounds, method for preparing same, and antiarrythmic agents containing same” (Mitsui Toatsu Chemicals, Incorporated, priority 1989, dated 1992).
Structures can show the parent of a compound that is named as a salt.

Key:
[1] = system: Purkinje fiber of the right ventricular free wall; experiment: Influence on myocardial action potential duration time (APD75), isolated right ventricular free wall; set-up: species or system dog (hybrid adult dog); conditions: Canis lupus familiaris, 20 min, 20 minutes' incubation; for APD75 prolongation (% change vs before administration) at 1 µg/mL: dose 1.0 μg/ml; for APD75 prolongation (% change vs before administration) at 3 µg/mL: dose 3.0 μg/ml; for APD75 prolongation (% change vs before administration) at 10 µg/mL: dose 10.0 μg/ml
Description: (1) Influence on myocardial action potential duration time (APD75): To a hybrid adult dog, 30 mg/kg of pentobarbital was administered through a vein, and after being anesthetized, the heart was removed. Afterward, the right ventricular free wall of the heart was cut and taken out in a Tyrode solution. […] In this isolated condition, myocardial action potential duration times (APD75) were measured before and after the administration of the respective compounds prepared in the above examples in Table 1 and d-sotalol as a control medicine, and APD75 (%) was calculated from the measured results in accordance with the formula: APD75 (%)=([…]75 before administration B: APD75 after administration Here, APD75 was measured as follows: […] This measured time was regarded as the myocardial action potential duration time (APD75). […] Incidentally, this test was carried out in accordance with a Sato et al's method [H. Sato, K. Hashimoto, Arzneimeittel Forschung, 34 (1), 3a, 376-380 (1984)].

[2] = system: ventricular muscle refractory period; experiment: Influence on ventricular muscle refractory period (ERP); format: in vivo, dog (mongrel adult dog); conditions: Canis lupus familiaris, iv, i.v., anesthetized dog, change vs before administration, read-out: ERP (%; extensibility of refractory period)
Description: (2) Influence on ventricular muscle refractory period:
Refractory periods were measured in the following manner before and after each of the compounds and d-sotalol shown in Table 1 was separately administered to a vein or a duodenum, and ERP (%; extensibility of refractory period) was calculated from the measured values in accordance with the following formula: […]
W: Refractory period after administration
Y: Refractory period before administration
To a mongrel adult dog, 30 mg/kg of pentobarbital was administered intravenously, and after being anesthetized, a pair of silver-silver chloride electrodes separated by 3 mm was sewn on an opened right ventricule, and electrical stimulation was given at an interval of 400 msec at a duration time of 4 msec under a current twice as much as the threshold. Afterward, a small amount of alcohol was injected into a sinus artery in order to extinguish a pacemaker activity, and the ventricular refractory period (ERP) was measured under ventricule pacing.
That is, 1 train comprised 10 stimulations, and an interval between two of the trains was usually 400 msec. At the time of the refractory period measurement, however, the above interval was shortened every 10 smec, and the interval between the trains at the time when reaction to the first stimulation of the train disappeared was regarded as the refractory period.
In this case, the electrical stimulation was fed in accordance with a program by a heart stimulation device (Diamedical Co., Ltd.; DHM-226-3).

[3] = Toxicity test, mortality 24 hours after oral administration; conditions: mouse, in vivo, 300 mg/kg p.o., mice, 24 hours after administration, read-out: Mortality Rate (%)
Description: Each of the compounds prepared in the above-mentioned examples shown in Table 2 was administered into a mouse (ddy strain, male). In each case, the administration was effected by oral administration (p.o.) in a dose of 300 mg/kg.
A mortality rate (number of specimens: one group=2 to 4 mice) of the mice 24 hours after the administration was calculated, and the results are set forth in Table 2.

Row | SMILES | APD75 prolongation (% change vs before administration) at 1 µg/mL [1] [%] | APD75 prolongation (% change vs before administration) at 3 µg/mL [1] [%] | APD75 prolongation (% change vs before administration) at 10 µg/mL [1] [%] | change in vivo at 0.1 mg/kg [2] [%] | change in vivo at 0.3 mg/kg [2] [%] | change in vivo at 1 mg/kg [2] [%] | change in vivo at 3 mg/kg [2] [%] | mortality at 24 h [3] [%] | APD75 prolongation (% change vs before administration) at 0.3 µg/mL ([1]; dose 0.3 μg/ml) [%]
1 | Cn1c(N2CCN(CCCOc3cccc4c3C(=O)CC(c3ccccc3)O4)CC2)cc(=O)n(C)c1=O (stereo not drawn) [Compound 21, 1,3-dimethyl-6-(4-[3-(2-phenyl-4-oxo-2,3-dihydro-4H-1-benzopyran-5-yl)oxypropyl]piperazine-1-yl)-2,4(1H,3H)-pyrimidinedione oxalate] | 12 | 16 | 20 | 0 | 0 | 0 | 7.7 | 0 | 
2 | CC(C)NCC(O)c1ccc(NS(C)(=O)=O)cc1 (stereo not drawn) [d-sotalol, reference compound] | 3 | 7.4 | 15.8 | 1.7 | 6.7 | 8.7 | 15.5 |  | 0
3 | Cc1cc(=O)c2c(OCCCN3CCN(c4cc(=O)n(C)c(=O)n4C)CC3)cccc2o1 [Compound 40, 1,3-Dimethyl-6-(4-[3-(2-methyl-4-oxo-4H-1-benzopyran-5-yl)oxypropyl-piperazine-1-yl)-2,4(1H,3H)-pyrimidinedione hydrochloride] | 18 | 25 | 29 | 6.9 | 10.3 | 13.9 | 17.4 | 0 | 
4 | Cn1c(N2CCN(CCCOc3cccc4occc(=O)c34)CC2)cc(=O)n(C)c1=O [Compound 38, 1,3-Dimethyl-6-(4-[3-(4-oxo-4H-1-benzopyran-5-yl)oxypropyl]pyperazine-1-yl)-2,4(1H,3H)-pyrimidinedione hydrochloride] | 10 | 20 | 39 | 4.5 | 9.3 | 16 | 16 | 0 | 
5 | Cc1coc2cccc(OCCCN3CCN(c4cc(=O)n(C)c(=O)n4C)CC3)c2c1=O [Compound 4, 1,3-dimethyl-6-(4-[3-(3-methyl-4-oxo-4H-1-benzopyran-5-yl)oxypropyl]piperazine-1-yl)-2,4(1H,3H)-pyrimidinedione hydrochloride] | 24 | 30 |  | 6.3 | 12.5 | 12.5 | 25 | 0 | 
6 | Cn1c(N2CCN(CCCOc3ccc4c(=O)cc(-c5ccccc5)oc4c3)CC2)cc(=O)n(C)c1=O [Compound 48, 1,3-Dimethyl-6-(4-[3-(2-phenyl-4-oxo-4H-1-benzopyran-7-yl)oxypropyl]piperazine-1-yl)-2,4(1H,3H)-pyrimidinedione oxalate] | 7 | 12 |  | 0 | 0 | 6.9 | 20.4 |  | 
7 | Cn1c(N2CCN(CCCOc3cccc4oc(-c5ccncc5)cc(=O)c34)CC2)cc(=O)n(C)c1=O [Compound 25, 1,3-dimethyl-6-(4-[3-[2-(pyridine-4-yl)-4-oxo-4H-1-benzopyran-5-yl]oxypropyl]piperazine-1-yl)-2,4(1H,3H)-pyrimidinedione dihydrochloride] | 7 | 19 | 27 | 6.3 | 6.7 | 12.5 |  | 0 | 
8 | Cn1c(N2CCN(CCCOc3cccc4oc(-c5ccccc5)cc(=O)c34)CC2)cc(=O)n(C)c1=O [Compound 39, 1,3-Dimethyl-6-(4-[3-(2-phenyl-4-oxo-4H-1-benzopyran-5-yl)oxypropyl]piperazine-1-yl)-2,4(1H,3H)-pyrimidinedione oxalate] | 7 | 20 |  | 7.1 | 14.3 | 14.3 | 14.3 | 0 | 
9 | CCOC(=O)c1cc(=O)c2ccc(OCCCN3CCN(c4cc(=O)n(C)c(=O)n4C)CC3)cc2o1 [Compound 50, 1,3-Dimethyl-6-(4-[3-(2-ethoxycarbonyl-4-oxo-4H-1-benzopyran-7-yl)oxypropyl]piperazine-1-yl)-2,4-(1H,3H)-pyrimidinedione oxalate] | 7 | 14 | 28 | 0 | 0 | 0 | 6.3 |  | 
10 | CCN(CCCOc1cccc2occ(C)c(=O)c12)CCNc1cc(=O)n(C)c(=O)n1C [Compound 14, 1,3-dimethyl-6-(2-[N-ethyl-N-[3-(3-methyl-4-oxo-4H-1-benzopyran-5-yl)oxypropyl]amino[ethylamino)-2,4(1H,3H)-pyrimidinedione oxalate] | 4 | 17 | 25 | 6.8 | 6.8 | 10.7 | 13.6 | 0 | 
11 | Cc1oc2cccc(OCCCN3CCN(c4cc(=O)n(C)c(=O)n4C)CC3)c2c(=O)c1C [Compound 7, 1,3-dimethyl-6-(4-[3-(2,3-dimethyl-4-oxo-4H-1-benzopyran-5-yl)oxypropyl]piperazine-1-yl)-2,4(1H,3H)-pyrimidinedione oxalate] | 25 | 31 |  | 12 | 18 | 18 | 24 | 0 | 
